The values that follow come from patent US11642391B2, “Compositions containing a pharmacophore with selectivity to diseased tissue and methods of making same” (Vascular BioSciences, priority 2014, dated 2023).

The subject of data set [1] is LPS-induced sepsis. As to the kind of experiment: Survival in LPS mouse model of sepsis. It is filed as in vivo, mice. Here is the method: Fifty-percent of all mice with LPS-induced sepsis that are left untreated are dead within 48 hours. When these LPS mice are treated with clinically relevant doses of the common and experimental sepsis drugs hydrocortisone, antithrombin III or sivelestat, survival ranged from 40-56%, similar to current clinical outcomes. In contrast, when LPS mice were co-administered CAR at the same time as hydrocortisone, antithrombin III or sivelestat, experimental sepsis survival improved to 83-89%.
Injection of the bacterial protein, lipopolysaccharide (LPS), was used to induce sepsis in mice. Doses were given at 3, 6, 9, and 12 hours to match the clinical use of sivelestat. Survival was measured up to 48 hours after LPS injection. At 48 hours, the survival rate of CAR pharmacophore+sivelestat treated animals was 89% compared to 50% in both control and sivelestat only groups, representing a 78% increase in survival of animals treated with CAR pharmacophore (FIG. 12).
Sepsis was initiated and survival measured with doses given at 3 and 24 hours to match the clinical use of ATIII. […]
CAR pharmacophore dramatically improves survival in septic mice treated with hydrocortisone steroid. Sepsis was initiated and survival measured with doses given at 3 and 24 hours to match the clinical use of hydrocortisone. […]

Data set [2] relates to sepsis. The following applies: cited from earlier work.
Data set [3] concerns monocrotaline-induced PAH. Kind of data set: Monocrotaline-induced (MCT) PAH rat model, co-administration with imatinib. In kind it is in vivo, Sprague-Dawley rats. The following applies: prolonged intravenous administration of imatinib alone. The protocol:
CAR pharmacophore co-administration with imatinib in a rat model of monocrotaline-induced (MCT) PAH was used to observe the therapeutic utility of CAR for targeting PAH. CAR pharmacophore peptide was intravenously co-administered with 10 mg/kg or 50 mg/kg imatinib for 14 days starting 4 weeks post MCT induction.
PAH was induced in male Sprague-Dawley rats (300-330 g, 10 weeks old, Harlan) with a single intraperitoneal dose of monocrotaline (60 mg/kg). Treatment was initiated four weeks after PAH induction with either imatinib (50 mg/kg or 10 mg/kg) or imatinib (50 mg/kg or 10 mg/kg)+CAR pharmacophore combination (3 mg/kg) for 2 weeks with daily i.v. (FIGS. 22 and 23) or daily sublingual administration.

Data set [4] concerns diseased kidney (anti-glomerular basement membrane antibody induced glomerular injury). As to the kind of experiment: CAR pharmacophore targeting in rat model of crescentic glomerular nephritis. In kind it is in vivo. The following applies: i.v. 3.3 mg/kg B.W., 14 days after induction, kidneys harvested three hours after injection. Here is the method: A rat model of crescentic glomerular nephritis (anti-glomerular basement membrane antibody induced glomerular injury) was used to observe the utility of CAR pharmacophore targeting in chronic kidney disease. Glomerulonephritis was induced in rat kidneys by i.v. injection of anti-glomerular basement membrane antibodies. 14 days after induction, CAR pharmacophore peptide or control ([…] SEQ ID NO: 34) peptide was i.v. injected at 3.3 mg/kg B.W. Kidneys were harvested three hours after CAR pharmacophore or control injection and Masson's trichrome (collagen) staining and fibronectin immunostaining were used to determine development of kidney disease and fibrosis formation.

Data set [5] has as its system MDA-MB-231 cells. As to the kind of experiment: Triple negative breast cancer model in athymic nude mice. It is filed as in vivo. Conditions: after 32 days; 3 mg/kg i.v. every other day, 15 doses.
Description: In female athymic nude mice (CRL: NU(NCr)—Foxn1nu, 11 weeks old, Charles River), triple negative breast cancer tumors were initiated via subcutaneous injection of 5×10^6 MDA-MB-231 cells into the right flank. Tumor growth was monitored until the average tumor size approached 100-150 mm3. […] Animals were dosed intravenously every other day for a total of 15 doses. Tumor volume was measured using calipers twice per week and animals weighed daily on days 1-5 and then on a twice weekly schedule.
For data set [6], the system named is CHO cells. Conditions: prior experiments; linear truncated peptides; cited from earlier work.
The test system of data set [7] is lung, liver and kidney endothelium of septic animals. As to the kind of experiment: Scanning electron micrograph of lung, liver and kidney tissue in LPS sepsis. It is filed as in vivo, mice.
The mark [8] stands for this setting: meta-analysis of 8 trials (Iwata et al., 2010).

For the compound `C[C@]12CCC(=O)C=C1CC[C@@H]1[C@@H]2[C@@H](O)C[C@@]2(C)[C@H]1CC[C@]2(O)C(=O)CO` [hydrocortisone], the survival rate in data set [1] (48 hours, hydrocortisone only, doses at 3 and 24 hours) came to 56%. Besides, the super infection result in data set [2] (low-dose hydrocortisone therapy, septic shock) was “more episodes of super infection”. Also, in data set [2] (low-dose hydrocortisone therapy), the “survival in patients with septic shock” value was “did not improve survival”.

Take `Cc1ccc(NC(=O)c2ccc(CN3CCN(C)CC3)cc2)cc1Nc1nccc(-c2cccnc2)n1` [imatinib]: in data set [3], the effect on bodyweight entry is “significant adverse effect on bodyweight”.

Turning to CGGGGGGGC [control peptide], the “accumulation in the diseased kidney” value in data set [4] was “largely cleared from the kidney”.

Consider `CC(=O)O[C@H]1C(=O)[C@@]2(C)[C@H]([C@H](OC(=O)c3ccccc3)[C@]3(O)C[C@H](OC(=O)[C@H](O)[C@@H](NC(=O)c4ccccc4)c4ccccc4)C(C)=C1C3(C)C)[C@]1(OC(C)=O)CO[C@@H]1C[C@@H]2O` [paclitaxel], for which the “bodyweight gain relative to average starting bodyweight” value in data set [5] is on record as 5%.

As for CARSKNK [SEQ ID NO: 24], the “cell binding and tissue homing” value in data set [6] is reported as “highly active”.

Consider `CC(C)(C)C(=O)Oc1ccc(S(=O)(=O)Nc2ccccc2C(=O)NCC(=O)O)cc1` [sivelestat], for which the survival rate in data set [1] (48 hours after LPS injection, doses at 3, 6, 9, and 12 hours) was found to be 50%. Besides, in data set [2] (setting [8]), the 180 day mortality entry is on record as “possibly increased”, the mechanical ventilation days entry was “no difference” and the “mortality rate within 28-30 days after randomization” value is “no difference”. In addition, in data set [7], the “pulmonary arteriole endothelium degradation (SEM, lung)” value is reported as “did not prevent degradation of the continuous pulmonary arteriole endothelium”; the “sieve plates (SEM, liver)” value was “not able to prevent defenestration of sieve plates”; the “tissue damage (SEM, kidney)” value is “did not prevent gross tissue damage”.
